# Measured values reported in article PMC10955127 (Frontiers in Pharmacology, 2024).
# Read-outs that look alike come from different tables or passages of the source.
# What was measured:
# [1] = system: estrogen receptor; design: method as in ToxCast database; conditions: ref ToxCast database, cited from earlier work
# [2] = ref PubChem or the ECHA database; cited from earlier work
# [3] = system: Thyroid (TR and TPO only); design: method as in ToxCast; conditions: ref ToxCast, cited from earlier work; for Thyroid (TR and TPO only): Experimental Data (call): Tier 0
# [4] = system: estrogen receptor; design: method as in ToxCast database; conditions: ref ToxCast database; cited from earlier work
# [5] = system: TSHR; design: method as in ToxCast database; conditions: ref ToxCast database; cited from earlier work
# [6] = system: estrogen receptor; design: method as in ToxCast database; conditions: ref ToxCast database, cited from earlier work; for AC50: read-out: Estrogen pathway Reporter protein Agonist: AC50
# [7] = system: estrogen receptor; design: method as in ToxCast database; conditions: ref ToxCast database, cited from earlier work; remark: listed apart in the source
# [8] = system: thyroid pathway; design: method as in ToxCast database; conditions: ref ToxCast database; cited from earlier work
# [9] = system: thyroid pathway; design: method as in ToxCast database; conditions: ref ToxCast database; cited from earlier work; remark: listed apart in the source
# [10] = KS2; cited from earlier work
# [11] = system: Aromatase; design: method as in ToxCast database; conditions: ref ToxCast database; cited from earlier work
# [12] = system: estrogen receptor; design: method as in ToxCast database; conditions: ref ToxCast database, cited from earlier work; remark: listed apart in the source
# [13] = In vitro skin penetration and metabolism, fresh viable pig skin on static Franz cells; conditions: for Total recovery: SA corrected by the amount of SA present in the formulation
# Excerpt: Fresh viable pig skin (without hot steam treatment, by-product from meat industry) was obtained from a local, commercial butcher (Hammoor, Germany). The back skin was from female pigs (bred from “Dänische Landrasse” (female) and Pietrain (male) pigs, ~130 days old, 100 kg body weight). Pig skin samples were gently dry-shaved and washed with water before use. For the experiment, 2 replicate discs from each of 3 donors were used.
# Skin of full-thickness was mounted on static Franz cells with a 4.9 cm² application area. The receptor compartment of the diffusion cell was filled with approx. 5 ml RF (1% BSA, 0.9% NaCl, 0.05% gentamycin sulfate in water), above a magnetic stirrer set to low rotation. […] The experiment was conducted using non-occluded conditions.
# The dermal absorption was calculated as the total amount present within epidermis (without the amount in the total SC strips), dermis and RF.
# [14] = system: rats; conditions: highest dose tested; KS2; cited from earlier work
# [15] = system: estrogen receptor; design: method as in ToxCast database; conditions: ref ToxCast database; cited from earlier work; remark: listed apart in the source
# [16] = system: thyroid pathway; design: method as in ToxCast database; conditions: ref ToxCast database; cited from earlier work; remark: listed apart in the source
# [17] = system: mice; conditions: KS2; cited from earlier work
# [18] = system: estrogen receptor (ER); conditions: cited from earlier work; for Estrogen: Experimental Data (call): Tier 0; for Estrogen: Experimental Data (call) / Estrogen: assays active / assays: ref ToxCast
# [19] = system: androgen receptor (AR); design: method as in ToxCast; conditions: ref ToxCast, cited from earlier work
# [20] = system: androgen receptor; design: method as in ToxCast database; conditions: ref ToxCast database; cited from earlier work
# [21] = system: androgen receptor; design: method as in ToxCast database; conditions: ref ToxCast database; cited from earlier work; remark: listed apart in the source
# [22] = system: androgen receptor; design: method as in ToxCast database; conditions: ref ToxCast database; cited from earlier work; remark: listed apart in the source
# [23] = in vitro; format: in vitro ADME
# Experimental: […]. Samples were precipitated with an equal volume of acetonitrile containing internal standards (1 μM diazepam, 1 μM griseofulvin, 10 μM diclofenac) and then centrifuged (4800 x g, room temperature, 5 min) before analysis by UHPLC-MS/HRMS.
# The amount of compound in the samples was expressed as percentage of remaining compound compared to time point zero (=100%). These percentages were plotted against the corresponding time points. In vitro intrinsic clearance (CLint) and half-life (t1/2) estimates were determined using the rate of precursor disappearance and following formula, based on the well-stirred liver model (Obach 1999):
# t1/2 = half-life [min]; k = slope from the linear regression of log [test compound] versus time plot [1/min]
# Where CLint = in vitro intrinsic clearance [μl/min/10^6 cells]; t1/2 = half-life [min]; k = slope of the linear regression of log [test compound] versus time plot [1/min]; V = ratio of incubation volume and cell number and fu = unbound fraction in the blood. […]
# [24] = system: androgen receptor; design: method as in ToxCast database; conditions: ref ToxCast database; cited from earlier work; remark: listed apart in the source
# [25] = in vivo; conditions: human
# [26] = system: H295R cell line; design: method as in ToxCast database; conditions: ref ToxCast database, cited from earlier work
# [27] = design: method as in SCCS, 2023a; conditions: frozen human skin, 14C-radio-labelled BSal in a formulation at 0.5%; ref SCCS, 2023a; cited from earlier work
# [28] = Fraction unbound in the plasma (Fup); conditions: human
# [29] = 24.14 mg/kg/day product, 0.5% BSal, 10.5% absorption
# [30] = design: method as in PubChem or the ECHA database; conditions: at 25°C; ref PubChem or the ECHA database; cited from earlier work
# [31] = system: H295R cell line; design: method as in ToxCast database; conditions: ref ToxCast database, cited from earlier work; remark: listed apart in the source
# [32] = ref PubChem or the ECHA database; cited from earlier work; remark: listed apart in the source
# [33] = at 35°C; ref PubChem or the ECHA database; cited from earlier work
# [34] = system: THRa; design: method as in ToxCast database; conditions: ref ToxCast database; cited from earlier work
# [35] = system: H295R cell line; design: method as in ToxCast database; conditions: ref ToxCast database, cited from earlier work; remark: listed apart in the source
# [36] = design: method as in ToxCast database; conditions: ref ToxCast database; cited from earlier work
# [37] = system: MCF-7 cells; format: cell-based; conditions: 1,000 µM SA or 1 μM trichostatin A, analysis Method 1
# [38] = 24 h after application of 0.5% BSal in formulation
# [39] = 24 h after application of 0.5% BSal in formulation, mean ± SD, n = 6
structure (smiles),measurement,setting,value
"O=C(O)c1ccccc1 [BA, benzoic acid]",Estrogen pathway Dimerisation: Call,[1],Negative
same,Vapor pressure,[2],0.1 Pa
same,Thyroid (TR and TPO only): Experimental Data (call),[3],Negative
same,Thyroid (TR and TPO only): assays active / assays,[3],0/12 active
same,Estrogen pathway Reporter protein Antagonist: Call,[4],Negative
same,Thyroid pathway Regulation of transcription factor activity (TSHR): Call,[5],Negative
same,Estrogen pathway Reporter protein Agonist: Call,[6],Positive
same,AC50,[6],7.54 µM
same,Estrogen pathway Cell Proliferation: Call,[7],Negative
same,Thyroid pathway Reporter protein Antagonist: Call,[8],Negative
same,Thyroid pathway Reporter protein Agonist: Call,[9],Negative
same,Developmental Toxicity NOAEL,[10],NOAEL 1306 mg/kg bw
same,Steroidogenesis Aromatase: Call,[11],Negative
same,Estrogen pathway mRNA induction: Call,[12],Negative
same,Dermal absorption of individual analytes,"[13]; 24 h, epidermis + dermis + receptor fluid",1.2 ± 0.7 percentage of the applied dose
same,Total recovery,[13]; [38],19.8 ± 17.2 percentage of the applied dose
same,Dermis,[13]; [39],1.2 ± 0.7 percentage of the applied dose
same,Epidermis,[13]; [39],< LOQ*
same,Receptor fluid,[13]; [39],< LOQ*
same,Stratum corneum,[13]; [39],16.8 ± 16.3 percentage of the applied dose
same,Surface,"[13]; 24 h after application of 0.5% BSal in formulation, mean ± SD, n = 6 skin discs (three donors)",1.7 ± 1.2 percentage of the applied dose
same,Reproductive toxicity NOAEL,[14],NOAEL 900 mg/kg bw (highest dose tested)
same,Estrogen pathway receptor binding: Call,[15],Negative
same,Thyroid pathway mRNA induction: Call,[16],Negative
"OCc1ccccc1 [BAlc, benzyl alcohol]",Estrogen pathway Dimerisation: Call,[1],Negative
same,Vapor pressure,[2],7 Pa
same,Thyroid (TR and TPO only): Experimental Data (call),[3],Negative
same,Thyroid (TR and TPO only): assays active / assays,[3],0/12 active
same,Developmental Toxicity NOAEL,[17],NOAEL: 200 mg/kg
same,Estrogen pathway Reporter protein Antagonist: Call,[4],Negative
same,Thyroid pathway Regulation of transcription factor activity (TSHR): Call,[5],Negative
same,Estrogen pathway Reporter protein Agonist: Call,[6],Negative
same,Thyroid pathway Reporter protein Antagonist: Call,[8],Negative
same,Thyroid pathway Reporter protein Agonist: Call,[9],Negative
same,Estrogen: Experimental Data (call),[18],Negative
same,Estrogen: assays active / assays,[18],0/18 active
same,Androgen: Experimental Data (call),[19]; Tier 0,Negative
same,Androgen: assays active / assays,[19],0/14 active
same,Androgen pathway mRNA induction: Call,[20],Negative
same,Androgen pathway Reporter protein Antagonist: Call,[21],Negative
same,Androgen pathway Reporter protein Agonist: Call,[22],Negative
same,Time within which rapidly metabolized in PHH,"[23]; both, human, hepatocytes, 5 µM",≤ 30 min
same,Steroidogenesis Aromatase: Call,[11],Negative
same,Androgen pathway Dimerisation: Call,[24],Negative
same,Estrogen pathway mRNA induction: Call,[12],Negative
same,Stratum corneum,[13],< LOQ*
same,Surface,[13],< LOQ*
same,Thyroid pathway mRNA induction: Call,[16],Negative
"O=C(OCc1ccccc1)c1ccccc1O [BSal, benzyl salicylate]",NOAEL,[25],123 mg/kg/day
same,Steroidogenesis Corticosterone in H295R cell line: call,[26],Positive
same,AC50,[26]; read-out: Steroidogenesis Corticosterone in H295R cell line: AC50,36.8 µM
same,Estrogen pathway Dimerisation: Call,[1],Positive
same,AC50,[1]; read-out: Estrogen pathway Dimerisation: AC50,36.5 µM
same,Skin absorption,[27],9.01 % of the applied dose
same,fraction unbound,[28],0.0066
same,Vapor pressure,[2],0.01 Pa
same,Thyroid (TR and TPO only): Experimental Data (call),[3],Negative
same,Thyroid (TR and TPO only): assays active / assays,[3],0/11 active
same,Estrogen pathway Reporter protein Antagonist: Call,[4],Negative
same,Thyroid pathway Regulation of transcription factor activity (TSHR): Call,[5],Negative
same,SED total,[29],24.14 × 0.5/100 × 10.5/100 = 0.01267 mg/kg/d
same,Estrogen pathway Reporter protein Agonist: Call,[6],Positive
same,AC50,[6],39.2 µM
same,Estrogen pathway Cell Proliferation: Call,[7],Positive
same,AC50,[7]; read-out: Estrogen pathway Cell Proliferation: AC50,85.2 µM
same,Thyroid pathway Reporter protein Antagonist: Call,[8],Negative
same,pKa,[30],9.82
same,Thyroid pathway Reporter protein Agonist: Call,[9],Negative
same,Steroidogenesis Progesterone in H295R cell line: call,[31],Positive
same,AC50,[31]; read-out: Steroidogenesis Progesterone in H295R cell line: AC50,43.7 µM
same,Water solubility,[32],8800 µg/mL
same,Estrogen: Experimental Data (call),[18],Positive
same,AC50,"[18]; binding assay for ERα, assay name OT_ER_ERaERa_0480, ref ToxCast database, read-out: Lowest reported AC50",36.5 µM
same,Estrogen: assays active / assays,[18],9 out of 18
same,Estrogen: assays active / assays,[18]; listed as Benzyl salicylate,9/18 assays active
same,Partition coefficient (Log Pow),[33],4
same,Thyroid pathway receptor binding (THRa): Call,[34],Negative
same,Initial concentration detected,"[23]; after 90, 120, and 240 min",0.1%–0.2%
same,Initial concentration remaining,"[23]; after 30 min, 20 µM BSal",10%
same,half-life at 20 µM,"[23]; both sexes, human, hepatocytes, 20 µM, 0.8 million cells/ml, read-out: Half-life in PHH",9.2 min
same,hepatocyte CLint at 20 µM,"[23]; both sexes, human, hepatocytes, PHH, read-out: In vitro intrinsic clearance (CLint, in vitro)",94.2 µL/min/1e6 cells
same,Steroidogenesis Aromatase: Call,[11],Negative
same,Estrogen pathway mRNA induction: Call,[12],Positive
same,AC50,[12]; read-out: Estrogen pathway mRNA induction: AC50,37 µM
same,Receptor fluid,[13],< LOQ*
same,Steroidogenesis 17alpha-hydroxyprogesterone in H295R cell line: call,[35],Positive
same,AC50,[35]; read-out: Steroidogenesis 17alpha-hydroxyprogesterone in H295R cell line: AC50,54.7 µM
same,Thyroid pathway mRNA induction: Call,[16],Negative
"O=Cc1ccccc1 [Benzaldehyde, benzaldehyde]",Total recovery,[13]; [38],< LOQ*
"O=C(O)CNC(=O)c1ccccc1 [Hippuric acid, hippuric acid]",Result in all 259 ToxCast assays,[36],"SA: alerts for developmental toxicity, reproductive toxicity, nephrotoxicity, hepatotoxicity, Hippuric acid: negative in all 259 ToxCast assays"
same,Thyroid pathway Reporter protein Antagonist: Call,[8],Negative
same,Thyroid pathway Reporter protein Agonist: Call,[9],Negative
same,Steroidogenesis Aromatase: Call,[11],Negative
same,Receptor fluid,[13],< LOQ*
same,Surface,[13],< LOQ*
"CC(/C=C/C(=O)NO)=C\[C@@H](C)C(=O)c1ccc(N(C)C)cc1 [trichostatin A, Trichostatin A]",Number of genes altered by > 1.5-fold or < -1.5-fold,[37]; 6 h,"~10,000 genes"
same,Number of genes altered by > 1.5-fold or < -1.5-fold,[37]; 24 h,"~10,000 genes"
